# Test results: article PMC12102759 (Protein Science : A Publication of the Protein Society, 2025)
# System: G3BP1 NFT2
# Assay type: binding, human
# Conditions: library DMS-CoV, bait G3BP1 NFT2, prey N, listed as aa = residue placed at this position, column sums to 1
sequence,measurement,setting,value
RNAPRITFGGPSDSTG G10M (RNAPRITFGMPSDSTG),"DMS PSSM value, G (position 10)",peptide RNAPRITFGGPSDSTG,0
RNAPRITFGGPSDSTG G16V (RNAPRITFGGPSDSTV),"DMS PSSM value, G (position 16)",peptide RNAPRITFGGPSDSTG,0
RNAPRITFGGPSDSTG A3Y (RNYPRITFGGPSDSTG),"DMS PSSM value, A (position 3)",peptide RNAPRITFGGPSDSTG,0
RNAPRITFGGPSDSTG T15W (RNAPRITFGGPSDSWG),"DMS PSSM value, T (position 15)",peptide RNAPRITFGGPSDSTG,0
RNAPRITFGGPSDSTG F8R (RNAPRITRGGPSDSTG),"DMS PSSM value, F (position 8)",peptide RNAPRITFGGPSDSTG,0
APRITFGGPSDSTGSN P2E (AERITFGGPSDSTGSN),"DMS PSSM value, P (position 2)",peptide APRITFGGPSDSTGSN,0.7321
RNAPRITFGGPSDSTG A3L (RNLPRITFGGPSDSTG),"DMS PSSM value, A (position 3)",peptide RNAPRITFGGPSDSTG,0
RNAPRITFGGPSDSTG A3R (RNRPRITFGGPSDSTG),"DMS PSSM value, A (position 3)",peptide RNAPRITFGGPSDSTG,0
RNAPRITFGGPSDSTG R5Q (RNAPQITFGGPSDSTG),"DMS PSSM value, R (position 5)",peptide RNAPRITFGGPSDSTG,0.0005824
APRITFGGPSDSTGSN R3Y (APYITFGGPSDSTGSN),"DMS PSSM value, R (position 3)",peptide APRITFGGPSDSTGSN,0.03984
APRITFGGPSDSTGSN P9Q (APRITFGGQSDSTGSN),"DMS PSSM value, P (position 9)",peptide APRITFGGPSDSTGSN,0
APRITFGGPSDSTGSN T5Y (APRIYFGGPSDSTGSN),"DMS PSSM value, T (position 5)",peptide APRITFGGPSDSTGSN,0
RNAPRITFGGPSDSTG F8P (RNAPRITPGGPSDSTG),"DMS PSSM value, F (position 8)",peptide RNAPRITFGGPSDSTG,0
RNAPRITFGGPSDSTG P11N (RNAPRITFGGNSDSTG),"DMS PSSM value, P (position 11)",peptide RNAPRITFGGPSDSTG,0
APRITFGGPSDSTGSN P9S (APRITFGGSSDSTGSN),"DMS PSSM value, P (position 9)",peptide APRITFGGPSDSTGSN,0.003052
APRITFGGPSDSTGSN T13Y (APRITFGGPSDSYGSN),"DMS PSSM value, T (position 13)",peptide APRITFGGPSDSTGSN,0.001423
APRITFGGPSDSTGSN I4V (APRVTFGGPSDSTGSN),"DMS PSSM value, I (position 4)",peptide APRITFGGPSDSTGSN,0.03242
APRITFGGPSDSTGSN G8M (APRITFGMPSDSTGSN),"DMS PSSM value, G (position 8)",peptide APRITFGGPSDSTGSN,0
RNAPRITFGGPSDSTG D13Y (RNAPRITFGGPSYSTG),"DMS PSSM value, D (position 13)",peptide RNAPRITFGGPSDSTG,0
RNAPRITFGGPSDSTG R5F (RNAPFITFGGPSDSTG),"DMS PSSM value, R (position 5)",peptide RNAPRITFGGPSDSTG,0
RNAPRITFGGPSDSTG I6L (RNAPRLTFGGPSDSTG),"DMS PSSM value, I (position 6)",peptide RNAPRITFGGPSDSTG,0.232
RNAPRITFGGPSDSTG S12Q (RNAPRITFGGPQDSTG),"DMS PSSM value, S (position 12)",peptide RNAPRITFGGPSDSTG,0
RNAPRITFGGPSDSTG R5P (RNAPPITFGGPSDSTG),"DMS PSSM value, R (position 5)",peptide RNAPRITFGGPSDSTG,0.5972
APRITFGGPSDSTGSN G8Y (APRITFGYPSDSTGSN),"DMS PSSM value, G (position 8)",peptide APRITFGGPSDSTGSN,0.02437
APRITFGGPSDSTGSN G8R (APRITFGRPSDSTGSN),"DMS PSSM value, G (position 8)",peptide APRITFGGPSDSTGSN,0
RNAPRITFGGPSDSTG T7S (RNAPRISFGGPSDSTG),"DMS PSSM value, T (position 7)",peptide RNAPRITFGGPSDSTG,0
RNAPRITFGGPSDSTG P11K (RNAPRITFGGKSDSTG),"DMS PSSM value, P (position 11)",peptide RNAPRITFGGPSDSTG,0
RNAPRITFGGPSDSTG I6E (RNAPRETFGGPSDSTG),"DMS PSSM value, I (position 6)",peptide RNAPRITFGGPSDSTG,0
APRITFGGPSDSTGSN S15A (APRITFGGPSDSTGAN),"DMS PSSM value, S (position 15)",peptide APRITFGGPSDSTGSN,0.001992
RNAPRITFGGPSDSTG G9I (RNAPRITFIGPSDSTG),"DMS PSSM value, G (position 9)",peptide RNAPRITFGGPSDSTG,0
RNAPRITFGGPSDSTG T7R (RNAPRIRFGGPSDSTG),"DMS PSSM value, T (position 7)",peptide RNAPRITFGGPSDSTG,0
APRITFGGPSDSTGSN P2D (ADRITFGGPSDSTGSN),"DMS PSSM value, P (position 2)",peptide APRITFGGPSDSTGSN,0.06205
RNAPRITFGGPSDSTG T7D (RNAPRIDFGGPSDSTG),"DMS PSSM value, T (position 7)",peptide RNAPRITFGGPSDSTG,0
RNAPRITFGGPSDSTG T7P (RNAPRIPFGGPSDSTG),"DMS PSSM value, T (position 7)",peptide RNAPRITFGGPSDSTG,0
APRITFGGPSDSTGSN F6D (APRITDGGPSDSTGSN),"DMS PSSM value, F (position 6)",peptide APRITFGGPSDSTGSN,0
RNAPRITFGGPSDSTG F8Y (RNAPRITYGGPSDSTG),"DMS PSSM value, F (position 8)",peptide RNAPRITFGGPSDSTG,0
APRITFGGPSDSTGSN F6Q (APRITQGGPSDSTGSN),"DMS PSSM value, F (position 6)",peptide APRITFGGPSDSTGSN,0
APRITFGGPSDSTGSN R3S (APSITFGGPSDSTGSN),"DMS PSSM value, R (position 3)",peptide APRITFGGPSDSTGSN,0.004779
RNAPRITFGGPSDSTG D13E (RNAPRITFGGPSESTG),"DMS PSSM value, D (position 13)",peptide RNAPRITFGGPSDSTG,0
APRITFGGPSDSTGSN T5P (APRIPFGGPSDSTGSN),"DMS PSSM value, T (position 5)",peptide APRITFGGPSDSTGSN,0
RNAPRITFGGPSDSTG S14L (RNAPRITFGGPSDLTG),"DMS PSSM value, S (position 14)",peptide RNAPRITFGGPSDSTG,0
RNAPRITFGGPSDSTG D13I (RNAPRITFGGPSISTG),"DMS PSSM value, D (position 13)",peptide RNAPRITFGGPSDSTG,0
APRITFGGPSDSTGSN P2H (AHRITFGGPSDSTGSN),"DMS PSSM value, P (position 2)",peptide APRITFGGPSDSTGSN,0
APRITFGGPSDSTGSN S10T (APRITFGGPTDSTGSN),"DMS PSSM value, S (position 10)",peptide APRITFGGPSDSTGSN,0.01147
APRITFGGPSDSTGSN S10F (APRITFGGPFDSTGSN),"DMS PSSM value, S (position 10)",peptide APRITFGGPSDSTGSN,0.001618
RNAPRITFGGPSDSTG R5I (RNAPIITFGGPSDSTG),"DMS PSSM value, R (position 5)",peptide RNAPRITFGGPSDSTG,0.009613
APRITFGGPSDSTGSN A1T (TPRITFGGPSDSTGSN),"DMS PSSM value, A (position 1)",peptide APRITFGGPSDSTGSN,0.07786
APRITFGGPSDSTGSN G14D (APRITFGGPSDSTDSN),"DMS PSSM value, G (position 14)",peptide APRITFGGPSDSTGSN,0.0004838
RNAPRITFGGPSDSTG P4S (RNASRITFGGPSDSTG),"DMS PSSM value, P (position 4)",peptide RNAPRITFGGPSDSTG,0
APRITFGGPSDSTGSN T5G (APRIGFGGPSDSTGSN),"DMS PSSM value, T (position 5)",peptide APRITFGGPSDSTGSN,0
RNAPRITFGGPSDSTG D13T (RNAPRITFGGPSTSTG),"DMS PSSM value, D (position 13)",peptide RNAPRITFGGPSDSTG,0
RNAPRITFGGPSDSTG S14N (RNAPRITFGGPSDNTG),"DMS PSSM value, S (position 14)",peptide RNAPRITFGGPSDSTG,0.6905
